Measured values from publication PMC8510601, “Discovery of benzamide-hydroxypyridinone hybrids as potent multi-targeting agents for the treatment of Alzheimer's disease” (Journal of Enzyme Inhibition and Medicinal Chemistry, 2021).

What was measured:
[1] = biological target: T1, MAO-B (Homo sapiens, UniProt P27338); test: Human MAO-B inhibition assay; assay type: biochemical; conditions: for inhibition at 0.1 µM: 100 nM, read-out: Inhibitory rate ± SEM (%, 100 nM); for inhibition at 1 µM: read-out: Inhibitory rate ± SEM (%, 1 μM); for IC50: ± SEM, read-out: IC50 against MAO-B
T1 sequence (P27338 1-520): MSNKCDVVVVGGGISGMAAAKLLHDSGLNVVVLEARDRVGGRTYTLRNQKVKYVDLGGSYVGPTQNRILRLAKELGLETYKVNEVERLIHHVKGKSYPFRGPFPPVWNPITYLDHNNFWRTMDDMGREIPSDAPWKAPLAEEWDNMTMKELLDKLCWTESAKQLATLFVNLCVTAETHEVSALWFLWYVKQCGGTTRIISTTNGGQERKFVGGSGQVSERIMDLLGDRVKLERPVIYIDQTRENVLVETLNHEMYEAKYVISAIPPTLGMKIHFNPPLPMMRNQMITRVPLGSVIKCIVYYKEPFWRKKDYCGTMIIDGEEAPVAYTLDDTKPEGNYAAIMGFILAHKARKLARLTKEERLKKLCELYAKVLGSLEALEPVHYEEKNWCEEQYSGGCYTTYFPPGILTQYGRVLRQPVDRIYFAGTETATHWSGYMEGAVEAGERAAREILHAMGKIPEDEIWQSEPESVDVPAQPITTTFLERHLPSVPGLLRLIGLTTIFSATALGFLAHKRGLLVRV

[2] = pKa determination by spectrophotometric titration; conditions: 0.1 M KCl aqueous solution, pH range 2.0–10.5, 25 °C
[3] = Iron-chelating activity test: affinity constants for Fe3+ and pFe3+; conditions: for Log β2 / Log β3: KCl (0.1 M): DMSO = 3:2 (v/v); for Log β1: KCl (0.1 M): DMSO = 9:1 (v/v); for pFe^3+: pH 7.4, [Fe3+]total = 10^−6 M, [ligand]total = 10^−5 M, calculated from pKa and log β measured in KCl/DMSO

Structure (SMILES)	inhibition at 0.1 µM [1]	inhibition at 1 µM [1]	melting point	pKa ([2]; KCl (0.1 M))	pKa ([2]; pKa2, KCl (0.1 M))	IC50 [1]	Log β2 [3]	Log β3 [3]	Log β1 [3]	pFe^3+ [3]
C#CCOc1ccc(C(=O)NCCn2ccc(=O)c(O)c2C)cc1 [Compound 8j]	38.7 ± 0.94%	58.6 ± 1.18%	208 to 210 °C	3.41	9.88		26.14	35.24	14.67	18.35
Cc1c(O)c(=O)ccn1CCNC(=O)c1ccc(OCc2cccc(Cl)c2)cc1 [Compound 8n]	47.7 ± 6.06%	72.4 ± 3.26%	236 to 238 °C	3.32	9.55	110.9 ± 1.1 nM	25.95	34.39	14.64	18.51
Cc1c(O)c(=O)ccn1CCNC(=O)c1ccc(OCc2ccc(F)cc2)cc1 [Compound 8m]	> 50%	70.9 ± 2.51%	254 to 256 °C	3.62	9.76	82.8 ± 0.8 nM	26.77	35.31	15.03	18.81
Cc1c(O)c(=O)ccn1CCNC(=O)c1ccccc1OCc1ccccc1 [Compound 8e]	33.1 ± 1.43%	51.5 ± 1.06%	180 to 182 °C	3.38	9.99		26.46	35.64	14.66	18.43
COc1cccc(C(=O)NCCn2ccc(=O)c(O)c2C)c1 [Compound 8c]	31.9 ± 0.85%	59.97 ± 0.14%	218 to 220 °C	3.37	9.83		26.17	35.55	14.68	18.80
Cc1c(O)c(=O)ccn1CCNC(=O)c1ccccc1 [Compound 8a]	> 50%	77.65 ± 0.6%	211 to 213 °C	3.43	9.81	79 ± 0.3 nM	26.35	35.83	14.93	19.14
COc1ccc(C(=O)NCCn2ccc(=O)c(O)c2C)cc1 [Compound 8d]	36.02 ± 0.15%	63 ± 3.9%	241 to 243 °C	3.34	9.82	210.8 ± 1.21 nM	25.95	35.25	14.52	18.53
Cc1c(O)c(=O)ccn1CCNC(=O)c1ccc(OCC2CCCCC2)cc1 [Compound 8k]	39.5 ± 2.38%	63.3 ± 0.92%	274 to 276 °C	3.21	9.89	189 ± 7.51 nM	26.31	35.84	14.44	18.91
Cc1c(O)c(=O)ccn1CCNC(=O)c1ccc(OCc2ccc(Cl)cc2)cc1 [Compound 8o]	48.5 ± 4.37%	63.6 ± 4.14%		3.33	9.63	139 ± 1.74 nM	26.09	34.55	14.43	18.44
Cc1c(O)c(=O)ccn1CCNC(=O)c1cccc(OCc2ccccc2)c1 [Compound 8f]	37.9 ± 1.22%	54.57 ± 0.51%	178 to 180 °C	3.38	9.92		26.85	35.33	14.75	18.38
COc1ccccc1C(=O)NCCn1ccc(=O)c(O)c1C [Compound 8b]	38.8 ± 1.16%	59.9 ± 1.57%		3.41	9.88		26.20	35.45	14.64	18.56
Cc1c(O)c(=O)ccn1CCNC(=O)c1ccc(OCc2cccc(F)c2)cc1 [Compound 8l]	> 50%	> 80%		3.51	9.74	96.4 ± 6.78 nM	26.72	35.87	14.76	19.39

Continued, in another order:

inhibition at 0.1 µM [1]	inhibition at 1 µM [1]	melting point	pKa ([2]; KCl (0.1 M))	pKa ([2]; pKa2, KCl (0.1 M))	IC50 [1]	Structure (SMILES)	Log β2 [3]	Log β3 [3]	Log β1 [3]	pFe^3+ [3]
34.1 ± 1.58%	60.8 ± 1.99%	266 to 268 °C	3.09	9.79	248 ± 9.56 nM	Cc1c(O)c(=O)ccn1CCNC(=O)c1cccnc1 [Compound 11b]	25.68	34.75	14.40	18.13
43.63 ± 0.34%	55.75 ± 0.03%	144 to 146 °C	3.28	9.75	121 ± 1.94 nM	Cc1c(O)c(=O)ccn1CCNC(=O)c1cccc(O)c1 [Compound 8x]	25.93	34.96	14.67	18.46
49.7 ± 4.22%	63.9 ± 0.67%		3.27	9.82	93.8 ± 6.48 nM	Cc1c(O)c(=O)ccn1CCNC(=O)c1ccc(OCc2cc(F)cc(F)c2)cc1 [Compound 8q]	26.63	35.73	14.61	19.01
37.6 ± 1.01%	55.3 ± 1.91%	163 to 165 °C	3.33	9.95		Cc1c(O)c(=O)ccn1CCNC(=O)c1ccc(O)cc1 [Compound 8y]	26.07	35.42	14.61	18.31
49.3 ± 2.58%	71.3 ± 1.02%		3.31	9.86	122.3 ± 0.21 nM	Cc1cccc(COc2ccc(C(=O)NCCn3ccc(=O)c(O)c3C)cc2)c1 [Compound 8s]	26.67	35.67	14.67	18.85
29.1 ± 2.14%	69.7 ± 2.38%	280 to 282 °C	3.15	9.81		Cc1c(O)c(=O)ccn1CCNC(=O)c1ccncc1 [Compound 11c]	26.21	35.58	14.74	18.89
41.5 ± 1.94%	62.92 ± 0.51%	247 to 249 °C	3.33	9.58	128 ± 3.96 nM	Cc1c(O)c(=O)ccn1CCNC(=O)c1ccc(OCc2ccc(C(C)C)cc2)cc1 [Compound 8u]	25.58	35.36	14.67	19.35
46.5 ± 6.99%	63.4 ± 4.06%	268 to 270 °C	3.25	9.78	187.7 ± 0.42 nM	Cc1c(O)c(=O)ccn1CCNC(=O)c1ccc(OCc2ccc(C(F)(F)F)cc2)cc1 [Compound 8r]	26.01	34.98	14.48	18.39
45.1 ± 1.62%	64.1 ± 0.82%	245 to 247 °C	3.12	9.93	118 ± 4.24 nM	Cc1ccc(COc2ccc(C(=O)NCCn3ccc(=O)c(O)c3C)cc2)cc1 [Compound 8t]	26.42	35.19	14.45	18.18
34 ± 5.19%	61.48 ± 0.58%	219 to 221 °C	3.35	9.86		Cc1c(O)c(=O)ccn1CCNC(=O)c1ccccn1 [Compound 11a]	25.92	35.10	14.52	18.27
48.9 ± 1.93%	64.2 ± 1.94%	245 to 247 °C	3.29	9.56	124 ± 1.32 nM	Cc1c(O)c(=O)ccn1CCNC(=O)c1ccc(OCc2ccc(C(C)(C)C)cc2)cc1 [Compound 8v]	25.51	35.20	14.69	19.25
41.4 ± 2.45%	65.1 ± 1.47%	236 to 238 °C	3.27	9.82	175 ± 6.73 nM	Cc1c(O)c(=O)ccn1CCNC(=O)c1ccc(OCc2cc(F)ccc2F)cc1 [Compound 8p]	26.58	35.44	14.47	18.74
